According to patent US20250243208A1, “BICYCLIC HETEROCYCLES AS MRGPRX2 ANTAGONISTS” (Incyte Corporation, priority 2024, published 2025):

What was measured:
MRGPRX2 [1] = target: T1, MRGPRX2 (Homo sapiens, UniProt Q96LB1); assay: MRGPRX2 β-Arrestin recruitment assay (PathHunter CHO-K1); assay type: cell-based; set-up: host or cells: PathHunter CHO-K1; details: PathHunter CHO-K1 cells, agonist Cortistatin 14 0.25 μM
T1 sequence (Q96LB1 1-330): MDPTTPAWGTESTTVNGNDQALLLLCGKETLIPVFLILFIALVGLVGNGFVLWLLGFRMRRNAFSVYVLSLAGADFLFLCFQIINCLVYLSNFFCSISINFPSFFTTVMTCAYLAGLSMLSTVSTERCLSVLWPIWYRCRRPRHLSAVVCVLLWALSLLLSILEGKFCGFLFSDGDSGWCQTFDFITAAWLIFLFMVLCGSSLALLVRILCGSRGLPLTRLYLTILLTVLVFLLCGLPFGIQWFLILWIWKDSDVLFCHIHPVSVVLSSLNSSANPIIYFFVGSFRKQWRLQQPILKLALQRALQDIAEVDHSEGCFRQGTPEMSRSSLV
Text: Example C: MRGPRX2 β-Arrestin Assay
This assay measures compound inhibition of β-Arrestin recruitment, which is part of the G protein-independent pathway that results from the ligand-activated GPCR phosphorylation by specific GPCR kinases. The PathHunter CHO-K1 MRPGRX2 B-Arrestin Cell line stably expressing ProLink tagged MRGPRX2 and Enzyme Acceptor Tagged B-Arrestin was purchased from Eurofins DiscoverX, (Fremont, CA).
The cells were maintained in culture medium from the Europhins DiscoverX Cell Culture Kit-107 which includes FBS, hygromycin B and G418. For the assay, the cells were harvested and were resuspended with Cell Plating Reagent 2 (Eurofins DiscoverX). Cells were added 10000 cells in 25 μL/well to a 384-well black cell culture plate (Greiner VWR, Radnor, PA) which contained 125 nL/well of compound at a selected serially diluted concentration range or DMSO. The plate was incubated at 37° C. with 5% CO2 for 1 h. 2 μL/well of agonist Cortistatin 14 was diluted in Protein Dilution Buffer, (Eurofins DiscoverX) for a final concentration of 0.25 μM, was added and the plate was incubated at 37° C. with 5% CO2 for 90 min. 14 μL/well of Detection Reagent Mix (PathHunter Detection Kit, Eurofins DiscoverX) was added to the plates and further incubated for 1 h in the dark. Plates were read on the PHERAstar microplate reader (BMG Labtech Cary, NC) measuring luminescence 0.1 to 1 s per well. Data was normalized using DMSO only wells and wells with high concentration of reference antagonist as controls. Compound IC50 curves were globally fitted with 3- or 4-parameter Hill equation in a Genedata Screener (Genedata Basel, Switzerland).

MRGPRX2 [2] = target: T1, MRGPRX2; assay: MRGPRX2 IP1 HTRF assay; assay type: cell-based; set-up: host or cells: CHO-K1; details: CHO-K1 cells, agonist Cortistatin 14 1 μM, IP1 accumulation
Text: Example B: MRGPRX2 IP1 HTRF Assay
This assay measures compound inhibition of myo-Inositol 1 phosphate (IP1) accumulation in CHO-K1 cells. Chinese hamster ovary (CHO-K1) cells stably expressing human MRGPRX2 were purchased from GenScript (Piscataway, NJ).
For the HTRF IP1 determination, an IP-One GqKit (Perkin Elmer Cisbio, Waltham, MA), which includes all reagents and buffers in this protocol, was used. The cells were maintained in culture medium (Ham's F-12K) containing 10% (v/v) FBS, and 200 μg/mL Zeocin. For the assay, the cells were harvested and resuspended in culture medium with 2% FBS and without Zeocin, then were passed through a 40 μm filter. Cells were added at 20000 cells in a 5 μL/well to a 384-well white small volume cell culture plate (Greiner VWR, Radnor, PA) which contained 50 nL/well of test compound serially diluted at a selected concentration range in DMSO. 5 μL/well of prepared 2× Stimulation Buffer2 was then added to plates and was incubated at 37° C. with 5% CO2 for 1 h. 5 μL/well of agonist Cortistatin 14 (Bio-TechneR&D Systems, Minneapolis, MN) in 1× Stimulation Buffer 2, for a 1 μM final concentration, was then added to plates and incubated at 37° C. with 5% CO2 for 1 h. 6 μL/well of 1:20 diluted Detection Reagent Mix (d2 and Cryptate) was added to the plates and incubated for 1 h in the dark. Plates were read on the PHERAstar microplate reader (BMG Labtech Cary, NC) to determine the HTRF ratio of the acceptor and donor emission signals. The IP1 concentrations were calculated from a standard curve following the IP-One GQ kit instructions. Wells with DMSO only and wells with high concentration of reference antagonist were used as controls for normalization. Compound IC50 curves were globally fitted with 3- or 4-parameter Hill equation in a Genedata Screener (Genedata Basel, Switzerland).

MRGPRX2 [3] = target: T1, MRGPRX2; assay: potency comparison of separated isomers (assay not stated); details: compared with the other separated diastereomer/enantiomer
MRGPRX2 [4] = target: T1, MRGPRX2; assay: MRGPRX2 FLIPR calcium mobilization assay; assay type: cell-based; set-up: host or cells: CHO-K1; details: CHO-K1 cells, agonist Cortistatin-14 at EC80, Ca2+ release
Procedure: Example A. MRGPRX2 FLIPR Calcium Mobilization Assay
Chinese hamster ovary (CHO-K1) cells stably expressing human MRGPRX2 were purchased from Genescript (Piscataway, NJ). The cells were maintained in culture medium (Ham's F-12K) containing 10% (v/v) FBS, 200 μg/mL Zeocin, 100 units/mL penicillin G and 100 μg/mL streptomycin (Life Technologies, Carlsbad, CA). For the assay, the cells were harvested and resuspended with culture medium without Zeocin before plating at 8000 cells per well in 20 μL in 384-well black clear bottom cell culture plates (VWR, Radnor, PA). […] Ca^2+ release was measured with FLIPR Penta with 10 s basal fluorescence measurement, then 12.5 μL of 5× agonist Cortistatin-14 (Tocris, Minneapolis, MN) at final concentration corresponding to the EC80 were added followed with continued fluorescence signal monitoring for an additional 110 s. The base line adjusted (median of first 10s base line) max value of the Relative Fluorescence Unit (RFU) was plotted against compound concentrations. […]

SMILES	IC50 (MRGPRX2 [1]) [µM]	IC50 (MRGPRX2 [2]) [µM]	relative potency of the separated isomer (MRGPRX2 [3])	IC50 (MRGPRX2 [4]) [µM]
CC(CNc1cc(C(F)(F)F)nc2cc(C(F)(F)F)nn12)(c1ccc(F)cc1)C1CCN(C(=O)NCCO)C1 (single isomer, unassigned) [Example 16, 3-(1-((2,5-Bis(trifluoromethyl)pyrazolo[1,5-a]pyrimidin-7-yl)amino)-2-(4-fluorophenyl)propan-2-yl)-N-(2-hydroxyethyl)pyrrolidine-1-carboxamide]	0.0001 to 0.1	0.0001 to 0.1	more potent	–
CC(CNc1cc(C(F)(F)F)nc2cc(C(F)(F)F)nn12)(c1ccc(F)cc1)C1CN(/C(N)=N/C#N)C1 (racemic) [Example 14, 3-(1-((2,5-Bis(trifluoromethyl)pyrazolo[1,5-a]pyrimidin-7-yl)amino)-2-(4-fluorophenyl)propan-2-yl)-N′-cyanoazetidine-1-carboximidamide]	0.0001 to 0.1	0.0001 to 0.1	–	0.0001 to 0.1
CC(CNc1cc(C(F)(F)F)nc2cc(C(F)(F)F)nn12)(c1ccc(F)cc1)C1CNC1 (racemic) [Example 13, N-(2-(Azetidin-3-yl)-2-(4-fluorophenyl)propyl)-2,5-bis(trifluoromethyl)pyrazolo[1,5-a]pyrimidin-7-amine]	0.0001 to 0.1	–	–	0.0001 to 0.1
CC(CNc1cc(C(F)(F)F)nc2cc(C(F)(F)F)nn12)(c1ccc(F)cc1)C1CCN(CC(N)=O)C1 (single isomer, unassigned) [Example 17, 2-(3-(1-((2,5-Bis(trifluoromethyl)pyrazolo[1,5-a]pyrimidin-7-yl)amino)-2-(4-fluorophenyl)propan-2-yl)pyrrolidin-1-yl)acetamide]	0.0001 to 0.1	0.0001 to 0.1	more potent	–
